Source: ChEMBL document CHEMBL3763148, “Synthesis, structure elucidation, DNA-PK and PI3K and anti-cancer activity of 8- and 6-aryl-substituted-1-3-benzoxazines” (Eur J Med Chem, 2016)
pIC50: −log10 of the molar value.

Tests used:
[1] = target: T1, Phosphatidylinositol 4,5-bisphosphate 3-kinase catalytic subunit delta isoform (Homo sapiens, UniProt O00329); experiment: Inhibition of PI3Kdelta (unknown origin) incubated for 60 mins by kinase-glo luminescence assay
T1 sequence (O00329 whole entry): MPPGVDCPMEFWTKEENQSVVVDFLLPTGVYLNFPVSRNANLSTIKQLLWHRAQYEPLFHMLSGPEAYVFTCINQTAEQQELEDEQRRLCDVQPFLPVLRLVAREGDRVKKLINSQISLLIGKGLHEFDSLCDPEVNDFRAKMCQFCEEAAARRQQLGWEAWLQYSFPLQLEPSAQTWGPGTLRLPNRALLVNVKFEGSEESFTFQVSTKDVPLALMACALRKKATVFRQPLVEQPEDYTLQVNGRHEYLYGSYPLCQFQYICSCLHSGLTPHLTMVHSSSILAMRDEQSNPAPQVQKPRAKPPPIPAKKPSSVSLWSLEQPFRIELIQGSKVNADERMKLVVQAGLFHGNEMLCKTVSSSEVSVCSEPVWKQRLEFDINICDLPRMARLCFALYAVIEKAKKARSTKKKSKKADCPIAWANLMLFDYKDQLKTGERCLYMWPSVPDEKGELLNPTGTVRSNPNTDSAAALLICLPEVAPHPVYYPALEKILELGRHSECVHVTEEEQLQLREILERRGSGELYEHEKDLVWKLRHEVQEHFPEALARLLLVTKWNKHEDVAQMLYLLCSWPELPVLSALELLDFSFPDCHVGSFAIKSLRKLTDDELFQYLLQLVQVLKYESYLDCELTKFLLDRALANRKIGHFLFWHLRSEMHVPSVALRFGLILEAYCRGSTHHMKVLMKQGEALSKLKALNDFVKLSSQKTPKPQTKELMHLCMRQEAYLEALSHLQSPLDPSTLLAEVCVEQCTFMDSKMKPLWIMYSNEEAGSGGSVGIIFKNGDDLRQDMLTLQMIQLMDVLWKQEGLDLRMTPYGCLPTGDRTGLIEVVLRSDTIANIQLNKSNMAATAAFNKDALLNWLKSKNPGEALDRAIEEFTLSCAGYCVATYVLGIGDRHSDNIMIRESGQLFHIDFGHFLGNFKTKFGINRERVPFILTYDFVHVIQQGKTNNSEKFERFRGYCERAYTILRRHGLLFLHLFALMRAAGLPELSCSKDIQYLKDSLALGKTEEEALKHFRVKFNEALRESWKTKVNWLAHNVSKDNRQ

[2] = Cytotoxicity against human LOXIMVI cells assessed as cell growth inhibition at 10 uM after 48 hrs by SRB assay relative to control; type: functional; conditions: LOX IMVI, read-out: GI
[3] = tested on: NCI-H460; experiment: Cytotoxicity against human NCI-H460 cells assessed as cell growth inhibition at 10 uM after 48 hrs by SRB assay relative to control; type: functional; conditions: NCI-H460, 48 h, read-out: GI
[4] = tested on: K562; experiment: Cytotoxicity against human K562 cells assessed as cell growth inhibition at 10 uM after 48 hrs by SRB assay relative to control; type: functional; conditions: K562, 48 h, read-out: GI
[5] = Cytotoxicity against human HOP62 cells assessed as cell growth inhibition at 10 uM after 48 hrs by SRB assay relative to control; type: functional; conditions: HOP-62, 48 h, read-out: GI
[6] = Cytotoxicity against human IGROV1 cells assessed as cell growth inhibition at 10 uM after 48 hrs by SRB assay relative to control; type: functional; conditions: IGROV-1, 48 h, read-out: GI
[7] = Cytotoxicity against human UO31 cells assessed as cell growth inhibition at 10 uM after 48 hrs by SRB assay relative to control; type: functional; conditions: UO-31, 48 h, read-out: GI
[8] = Cytotoxicity against human HCT15 cells assessed as cell growth inhibition at 10 uM after 48 hrs by SRB assay relative to control; type: functional; conditions: HCT-15, 48 h, read-out: GI
[9] = Cytotoxicity against human SNB75 cells assessed as cell growth inhibition at 10 uM after 48 hrs by SRB assay relative to control; type: functional; conditions: SNB-75, 48 h, read-out: GI
[10] = Cytotoxicity against human UACC62 cells assessed as cell growth inhibition at 10 uM after 48 hrs by SRB assay relative to control; type: functional; conditions: UACC-62, 48 h, read-out: GI
[11] = Cytotoxicity against human HCT116 cells assessed as cell growth inhibition at 10 uM after 48 hrs by SRB assay relative to control; type: functional; conditions: HCT-116, 48 h, read-out: GI
[12] = tested on: A549; experiment: Cytotoxicity against human A549 cells assessed as cell growth inhibition at 10 uM after 48 hrs by SRB assay relative to control; type: functional; conditions: A549, 48 h, read-out: GI
[13] = tested on: MDA-MB-231; experiment: Cytotoxicity against human MDA-MB-231 cells assessed as cell growth inhibition at 10 uM after 48 hrs by SRB assay relative to control; type: functional; conditions: MDA-MB-231, 48 h, read-out: GI
[14] = tested on: KM12; experiment: Cytotoxicity against human KM12 cells assessed as cell growth inhibition at 10 uM after 48 hrs by SRB assay relative to control; type: functional; conditions: KM12, 48 h, read-out: GI
[15] = Cytotoxicity against human OVCAR5 cells assessed as cell growth inhibition at 10 uM after 48 hrs by SRB assay relative to control; type: functional; conditions: OVCAR-5, 48 h, read-out: GI
[16] = tested on: M14; experiment: Cytotoxicity against human M14 cells assessed as cell growth inhibition at 10 uM after 48 hrs by SRB assay relative to control; type: functional; conditions: M14, 48 h, read-out: GI
[17] = tested on: T47D; experiment: Cytotoxicity against human T47D cells assessed as cell growth inhibition at 10 uM after 48 hrs by SRB assay relative to control; type: functional; conditions: read-out: GI
[18] = Cytotoxicity against human DU145 cells assessed as cell growth inhibition at 10 uM after 48 hrs by SRB assay relative to control; type: functional; conditions: DU-145, 48 h, read-out: GI
[19] = Cytotoxicity against human SF295 cells assessed as cell growth inhibition at 10 uM after 48 hrs by SRB assay relative to control; type: functional; conditions: SF-295, 48 h, read-out: GI
[20] = tested on: CCRF-CEM; experiment: Cytotoxicity against human CCRF-CEM cells assessed as cell growth inhibition at 10 uM after 48 hrs by SRB assay relative to control; type: functional; conditions: read-out: GI
[21] = Cytotoxicity against human PC3 cells assessed as cell growth inhibition at 10 uM after 48 hrs by SRB assay relative to control; type: functional; conditions: PC-3, 48 h, read-out: GI
[22] = tested on: NCI-H226; experiment: Cytotoxicity against human NCI-H226 cells assessed as cell growth inhibition at 10 uM after 48 hrs by SRB assay relative to control; type: functional; conditions: NCI-H226, 48 h, read-out: GI
[23] = tested on: SK-MEL-2; experiment: Cytotoxicity against human SK-MEL-2 cells assessed as cell growth inhibition at 10 uM after 48 hrs by SRB assay relative to control; type: functional; conditions: SK-MEL-2, 48 h, read-out: GI
[24] = tested on: EKVX; experiment: Cytotoxicity against human EKVX cells assessed as cell growth inhibition at 10 uM after 48 hrs by SRB assay relative to control; type: functional; conditions: read-out: GI

| SMILES | inhibition of growth at 10 µM [2] [%] | inhibition of growth at 10 µM [3] [%] | inhibition of growth at 10 µM [4] [%] | inhibition of growth at 10 µM [5] [%] | inhibition of growth at 10 µM [6] [%] | inhibition of growth at 10 µM [7] [%] | inhibition of growth at 10 µM [8] [%] | inhibition of growth at 10 µM [9] [%] | inhibition of growth at 10 µM [10] [%] | inhibition of growth at 10 µM [11] [%] | inhibition of growth at 10 µM [12] [%] | inhibition of growth at 10 µM [13] [%] | inhibition of growth at 10 µM [14] [%] | inhibition of growth at 10 µM [15] [%] | inhibition of growth at 10 µM [16] [%] | inhibition of growth at 10 µM [17] [%] | inhibition of growth at 10 µM [18] [%] | inhibition of growth at 10 µM [19] [%] | inhibition of growth at 10 µM [20] [%] | inhibition of growth at 10 µM [21] [%] | other results |
| --- | --- | --- | --- | --- | --- | --- | --- | --- | --- | --- | --- | --- | --- | --- | --- | --- | --- | --- | --- | --- | --- |
| O=c1nc(N2CCOCC2)oc2c(-c3cccc4ccccc34)cccc12 | 19.9 | -10 | 9.87 | 19.2 | 24.6 | 46.6 | 6.69 | 53.1 | 45.6 | 3.34 | 14.4 | 6.52 | 12.7 | 10.8 | 6.76 | 20.3 | 2.34 | 10.8 | 8.52 | 40.3 | pIC50 [1]: 6.19; inhibition of growth at 10 µM [22]: 33.4%; inhibition of growth at 10 µM [23]: -0.37%; inhibition of growth at 10 µM [24]: 18.9% |
| O=c1nc(N2CCOCC2)oc2c(-c3cccs3)cccc12 | 14.4 | -5.8 | 0.8 | 8.34 | 8.05 | 20.2 | 0.33 | 32.7 | 20.9 | 2.65 | 5.77 | -6.21 | 1.99 | 4.55 | 0.86 | 17.8 | -2.35 | -0.99 | 2.36 | 17.2 | pIC50 [1]: 5.35; inhibition of growth at 10 µM [22]: 22%; inhibition of growth at 10 µM [23]: -7.08%; inhibition of growth at 10 µM [24]: 14.1% |
| O=c1nc(N2CCOCC2)oc2c(-c3cccc4c3sc3ccccc34)cccc12 | 21.3 | 4.79 | 20.6 | 26.8 | 15 | 52 | 13.4 | 53 | 45.6 | 18.7 | 22.5 | 29.5 | 21.6 | 18.8 | 3.09 | 42.8 | 5.8 | 11 | 19.9 | 40.5 | pIC50 [1]: 5.07; inhibition of growth at 10 µM [22]: 38.6%; inhibition of growth at 10 µM [23]: 9.49%; inhibition of growth at 10 µM [24]: 28.3% |
| COc1ccc(-c2cccc3c(=O)nc(N4CCOCC4)oc23)cc1 | 13 | -5.69 | 7.02 | 5.81 | 0.87 | 17.4 | 3.13 | 38.2 | 19.3 | 7.05 | 5.88 | 3.13 | 2.91 | 4.76 | -0.43 | 38.5 | 1.58 | 2.78 | 2.57 | 14.9 | pIC50 [1]: 5.57; inhibition of growth at 10 µM [22]: 15.1%; inhibition of growth at 10 µM [23]: -9.8%; inhibition of growth at 10 µM [24]: 11.1% |
| O=c1nc(N2CCOCC2)oc2c(-c3ccsc3)cccc12 | 10.6 | -4.22 | -1.04 | 15.3 | 7.97 | 23.4 | 6.07 | 38.8 | 31.4 | 2.6 | 3.82 | 6.78 | 2.74 | 10.8 | 3.28 | 26.5 | 0.16 | 17.1 | 8.93 | 24.6 | pIC50 [1]: 5.32; inhibition of growth at 10 µM [22]: 21.9%; inhibition of growth at 10 µM [23]: -2.53%; inhibition of growth at 10 µM [24]: 16.3% |
| O=c1nc(N2CCOCC2)oc2ccc(-c3cccc4c3sc3ccccc34)cc12 | 1.76 | -1.46 | 10.7 | 4.6 | -5.28 | 1.02 | 29.8 | 10.5 | 12.6 | 8.17 | 5.3 | 12.8 | 0.12 | 0.51 | 2.99 | 16.6 | -3.21 | 0.5 | 4.4 | 39.9 | inhibition of growth at 10 µM [22]: 11.7%; inhibition of growth at 10 µM [23]: 1.3%; inhibition of growth at 10 µM [24]: 5.25% |
